{
  "source": "patent US20140227311A1",
  "about": "“Method for Removing Immunosuppressive Properties of HIV Envelope Glycoproteins” (priority 2011, published 2014)",
  "tested_on": "CTLL-2 cells",
  "assay_type": "cell-based",
  "settings": "dimerized peptides (disulfide); 24 h; wt effect at concentrations of 75 or 100 uM; FIG. 1",
  "note": "Ends that are not written are not given here.",
  "data": [
    {"sequence": "LQARILAVERYLKDQQLLGIWGCGGEKEKEK (also: dimerized) [wt ISD, dimerized wild-type ISD peptide with GGEKEKEK tail]", "values": [
      {"measurement": "inhibition of the proliferation of CTLL2 cells", "value": "inhibits the proliferation of the CTLL2 cells at concentrations of 75 or 100 uM"}
    ]}
  ]
}
